In patent US8133998B2, “Bicyclic pyrimidine derivatives as calcium channel blockers” (Zalicus Pharmaceuticals, Ltd., priority 2007, dated 2012):

What was measured:
Test in all cases: T-type calcium channel block, whole cell patch clamp in HEK cells
Assay type in all cases: cell-based
[1] = target: T1, human α1I T-type channels (Homo sapiens, UniProt Q9P0X4); conditions: HEK cells stably expressing human α1I; measured at 1 μM drug; mainly non-inactivated protocol
T1 construct: expressed in transfected cells; host or cells: HEK 293
Experimental: (§1) T-type calcium channel blocking activity was assayed in human embryonic kidney cells, HEK 293, stably transfected with the T-type calcium channel subunits. Briefly, cells were cultured in Dulbecco's modified eagle medium (DMEM) supplemented with 10% fetal bovine serum, 200 U/ml penicillin and 0.2 mg/ml streptomycin at 37° C. with 5% CO2. At 85% confluency cells were split with 0.25% trypsin/1 mM EDTA and plated at 10% confluency on glass coverslips. At 12 hours the medium was replaced and the cells stably transfected using a standard calcium phosphate protocol and the appropriate calcium channel cDNA's. Fresh DMEM was supplied and the cells transferred to 28° C./5% CO2. Cells were incubated for 1 to 2 days prior to whole cell recording.
(§2) Standard patch-clamp techniques were employed to identify blockers of T-type currents. Briefly, previously described HEK cell lines stably expressing human α1G, α1H and α1I T-type channels were used for all the recordings (passage #: 4-20, 37° C., 5% CO2). Whole cell patch clamp experiments were performed using an Axopatch 200B amplifier (Axon Instruments, Burlingame, Calif.) linked to a personal computer equipped with pCLAMP software. Data were analyzed using Clampfit (Axon Instruments) and SigmaPlot 4.0 (Jandel Scientific). To obtain T-type currents, plastic dishes containing semi-confluent cells were positioned on the stage of a ZEISS AXIOVERT S100 microscope after replacing the culture medium with external solution (see below). Whole-cell patches were obtained using pipettes (borosilicate glass with filament, O.D.: 1.5 mm, I.D.: 0.86 mm, 10 cm length), fabricated on a SUTTER P-97 puller with resistance values of ˜5 MΩ (see below for internal solution).
(§3) In the non-inactivating protocol, the holding potential is set at −110 mV and with a pre-pulse at −100 mV for 1 second prior to the test pulse at −40 mV for 50 ms. In the inactivation protocol, the pre-pulse is at approximately −85 mV for 1 second, which inactivates about 15% of the T-type channels.
(§4) Test compounds were dissolved in external solution, 0.1-0.01% DMSO. After ˜10 min rest, they were applied by gravity close to the cell using a WPI microfil tubing. The “non-inactivated” pre-pulse was used to examine the resting block of a compound. The “inactivated” protocol was employed to study voltage-dependent block. However, the initial data shown below were mainly obtained using the non-inactivated protocol only. Kd values are shown for various compounds of the invention in Table 4 measured at 1 μM for the drug of interest except for compound 18 which was measured at 200 nM.

[2] = target: T2, human α1H T-type channels (Homo sapiens, UniProt O95180); conditions: HEK cells stably expressing human α1H; measured at 1 μM drug; mainly non-inactivated protocol
T2 construct: expressed in transfected cells; host or cells: HEK 293
Experimental: as §1, §2, §3, §4

[3] = target: T3, human α1G T-type channels (Homo sapiens, UniProt O43497); conditions: HEK cells stably expressing human α1G; measured at 1 μM drug; mainly non-inactivated protocol
T3 construct: expressed in transfected cells; host or cells: HEK 293
Experimental: as §1, §2, §3, §4

T3 sequence (O43497 whole entry): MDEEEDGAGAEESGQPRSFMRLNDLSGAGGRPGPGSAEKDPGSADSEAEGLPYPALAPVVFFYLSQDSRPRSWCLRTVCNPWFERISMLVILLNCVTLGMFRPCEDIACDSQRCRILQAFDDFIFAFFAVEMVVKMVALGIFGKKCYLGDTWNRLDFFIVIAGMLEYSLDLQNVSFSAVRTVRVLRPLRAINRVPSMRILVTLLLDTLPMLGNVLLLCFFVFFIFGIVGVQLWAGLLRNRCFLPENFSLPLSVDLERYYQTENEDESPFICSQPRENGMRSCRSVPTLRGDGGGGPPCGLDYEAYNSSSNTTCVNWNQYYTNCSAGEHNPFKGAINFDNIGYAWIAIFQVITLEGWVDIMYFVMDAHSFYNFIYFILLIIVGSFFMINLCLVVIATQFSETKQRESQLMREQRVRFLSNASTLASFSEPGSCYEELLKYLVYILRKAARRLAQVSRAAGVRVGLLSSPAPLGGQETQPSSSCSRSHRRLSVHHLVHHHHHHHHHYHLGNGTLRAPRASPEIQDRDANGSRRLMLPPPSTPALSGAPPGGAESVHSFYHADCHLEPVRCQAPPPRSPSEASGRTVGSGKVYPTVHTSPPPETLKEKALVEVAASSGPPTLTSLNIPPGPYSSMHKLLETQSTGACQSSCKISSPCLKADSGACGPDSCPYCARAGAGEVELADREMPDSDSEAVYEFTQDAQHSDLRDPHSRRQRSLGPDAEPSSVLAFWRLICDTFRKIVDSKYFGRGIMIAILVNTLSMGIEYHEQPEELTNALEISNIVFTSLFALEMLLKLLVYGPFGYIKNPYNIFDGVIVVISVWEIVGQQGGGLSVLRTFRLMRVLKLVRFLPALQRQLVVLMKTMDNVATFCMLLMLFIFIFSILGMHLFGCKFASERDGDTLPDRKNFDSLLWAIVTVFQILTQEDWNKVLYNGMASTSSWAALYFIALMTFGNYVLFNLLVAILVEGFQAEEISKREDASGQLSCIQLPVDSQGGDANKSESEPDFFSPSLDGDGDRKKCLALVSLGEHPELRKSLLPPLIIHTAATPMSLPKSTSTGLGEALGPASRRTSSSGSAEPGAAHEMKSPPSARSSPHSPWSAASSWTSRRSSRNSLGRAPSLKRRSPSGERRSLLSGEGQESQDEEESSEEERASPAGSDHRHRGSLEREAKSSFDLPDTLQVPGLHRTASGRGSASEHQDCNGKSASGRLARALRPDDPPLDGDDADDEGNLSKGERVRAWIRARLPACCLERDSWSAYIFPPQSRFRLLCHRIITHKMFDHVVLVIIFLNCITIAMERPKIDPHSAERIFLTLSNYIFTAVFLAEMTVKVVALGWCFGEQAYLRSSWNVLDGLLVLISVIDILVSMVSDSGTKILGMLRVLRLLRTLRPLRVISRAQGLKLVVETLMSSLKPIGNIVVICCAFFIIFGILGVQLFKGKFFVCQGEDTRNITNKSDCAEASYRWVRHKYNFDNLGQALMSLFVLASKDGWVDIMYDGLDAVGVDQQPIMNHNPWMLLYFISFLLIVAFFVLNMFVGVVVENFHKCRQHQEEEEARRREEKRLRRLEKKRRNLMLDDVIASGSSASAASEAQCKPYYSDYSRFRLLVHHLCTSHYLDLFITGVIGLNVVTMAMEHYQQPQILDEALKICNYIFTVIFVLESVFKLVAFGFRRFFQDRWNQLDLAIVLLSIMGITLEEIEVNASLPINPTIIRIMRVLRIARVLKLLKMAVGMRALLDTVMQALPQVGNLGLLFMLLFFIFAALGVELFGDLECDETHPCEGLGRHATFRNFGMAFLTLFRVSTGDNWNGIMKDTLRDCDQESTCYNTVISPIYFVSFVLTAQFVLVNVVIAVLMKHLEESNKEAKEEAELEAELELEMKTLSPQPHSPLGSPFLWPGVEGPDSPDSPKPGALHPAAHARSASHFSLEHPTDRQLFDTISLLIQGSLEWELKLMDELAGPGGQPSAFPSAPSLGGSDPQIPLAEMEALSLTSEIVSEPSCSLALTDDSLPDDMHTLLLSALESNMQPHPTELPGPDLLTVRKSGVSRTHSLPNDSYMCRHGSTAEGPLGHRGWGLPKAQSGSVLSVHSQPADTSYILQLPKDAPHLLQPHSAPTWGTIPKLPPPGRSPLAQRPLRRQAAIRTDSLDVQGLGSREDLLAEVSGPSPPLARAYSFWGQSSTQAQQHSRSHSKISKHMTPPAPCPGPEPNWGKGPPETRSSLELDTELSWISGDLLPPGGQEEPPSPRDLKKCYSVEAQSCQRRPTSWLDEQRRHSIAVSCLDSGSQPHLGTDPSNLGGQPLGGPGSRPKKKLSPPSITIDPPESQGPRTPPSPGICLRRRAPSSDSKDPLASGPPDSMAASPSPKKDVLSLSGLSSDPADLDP
T2 sequence (O95180 whole entry): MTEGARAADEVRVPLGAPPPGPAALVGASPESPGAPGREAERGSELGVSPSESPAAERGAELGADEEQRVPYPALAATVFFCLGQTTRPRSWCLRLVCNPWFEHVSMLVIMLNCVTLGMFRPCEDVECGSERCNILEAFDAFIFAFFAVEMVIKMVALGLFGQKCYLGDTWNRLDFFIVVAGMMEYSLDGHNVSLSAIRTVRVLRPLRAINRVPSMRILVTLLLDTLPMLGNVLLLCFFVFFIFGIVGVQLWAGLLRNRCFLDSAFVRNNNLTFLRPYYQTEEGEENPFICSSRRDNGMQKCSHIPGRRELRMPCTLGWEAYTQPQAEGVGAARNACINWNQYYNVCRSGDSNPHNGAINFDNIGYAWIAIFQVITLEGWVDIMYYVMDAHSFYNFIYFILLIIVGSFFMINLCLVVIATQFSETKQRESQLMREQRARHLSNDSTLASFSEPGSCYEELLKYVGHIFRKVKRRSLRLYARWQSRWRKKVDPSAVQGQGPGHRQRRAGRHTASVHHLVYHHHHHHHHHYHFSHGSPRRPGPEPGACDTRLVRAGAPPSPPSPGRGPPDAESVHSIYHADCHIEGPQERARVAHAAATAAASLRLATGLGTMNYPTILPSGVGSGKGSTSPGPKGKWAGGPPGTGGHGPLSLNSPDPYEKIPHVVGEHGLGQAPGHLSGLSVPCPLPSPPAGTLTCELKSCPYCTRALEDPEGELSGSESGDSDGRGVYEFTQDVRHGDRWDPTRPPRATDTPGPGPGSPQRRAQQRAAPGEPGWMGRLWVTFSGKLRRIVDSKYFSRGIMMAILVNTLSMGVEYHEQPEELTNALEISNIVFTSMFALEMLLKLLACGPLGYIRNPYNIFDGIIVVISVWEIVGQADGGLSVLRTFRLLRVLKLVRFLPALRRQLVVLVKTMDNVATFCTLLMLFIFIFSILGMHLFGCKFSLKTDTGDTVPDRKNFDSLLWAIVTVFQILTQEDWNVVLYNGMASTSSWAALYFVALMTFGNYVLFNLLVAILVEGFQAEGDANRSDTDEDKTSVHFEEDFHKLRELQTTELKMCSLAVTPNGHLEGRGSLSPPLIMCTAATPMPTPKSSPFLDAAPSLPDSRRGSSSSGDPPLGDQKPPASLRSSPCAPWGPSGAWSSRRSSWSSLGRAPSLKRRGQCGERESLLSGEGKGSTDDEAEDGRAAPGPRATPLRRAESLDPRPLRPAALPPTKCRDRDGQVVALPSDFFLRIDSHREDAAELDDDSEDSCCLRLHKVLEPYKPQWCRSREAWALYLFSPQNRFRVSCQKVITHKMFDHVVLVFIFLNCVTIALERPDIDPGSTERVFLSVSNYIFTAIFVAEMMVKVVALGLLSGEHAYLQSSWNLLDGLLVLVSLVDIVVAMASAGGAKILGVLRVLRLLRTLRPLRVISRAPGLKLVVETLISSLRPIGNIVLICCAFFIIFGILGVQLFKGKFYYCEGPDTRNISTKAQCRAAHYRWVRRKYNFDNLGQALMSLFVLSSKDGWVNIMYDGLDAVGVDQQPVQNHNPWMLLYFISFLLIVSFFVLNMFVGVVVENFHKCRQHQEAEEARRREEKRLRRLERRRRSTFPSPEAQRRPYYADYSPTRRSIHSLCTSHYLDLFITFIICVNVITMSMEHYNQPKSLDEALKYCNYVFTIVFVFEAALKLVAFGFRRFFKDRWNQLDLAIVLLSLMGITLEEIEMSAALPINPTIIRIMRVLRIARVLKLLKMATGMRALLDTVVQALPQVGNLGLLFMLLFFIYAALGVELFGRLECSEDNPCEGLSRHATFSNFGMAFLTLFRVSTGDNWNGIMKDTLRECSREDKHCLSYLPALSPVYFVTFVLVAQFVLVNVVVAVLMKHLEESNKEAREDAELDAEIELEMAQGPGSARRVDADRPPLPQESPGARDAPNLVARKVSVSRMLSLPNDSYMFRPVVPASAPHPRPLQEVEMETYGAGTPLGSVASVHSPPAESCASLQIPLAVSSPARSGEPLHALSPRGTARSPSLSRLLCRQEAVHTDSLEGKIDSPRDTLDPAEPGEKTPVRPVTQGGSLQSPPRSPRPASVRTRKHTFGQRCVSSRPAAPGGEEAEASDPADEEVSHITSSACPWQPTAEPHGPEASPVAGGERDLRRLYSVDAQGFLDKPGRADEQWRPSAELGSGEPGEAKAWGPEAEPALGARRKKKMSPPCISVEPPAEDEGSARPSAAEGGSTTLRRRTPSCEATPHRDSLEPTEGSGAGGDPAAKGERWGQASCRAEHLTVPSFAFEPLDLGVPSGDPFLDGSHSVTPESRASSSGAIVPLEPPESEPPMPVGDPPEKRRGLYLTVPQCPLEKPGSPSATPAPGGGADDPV

| Compound | Kd [1] | Kd [2] | Kd [3] |
| --- | --- | --- | --- |
| CCN(CC)C(=O)Cn1cnc2sc(C(=O)N3CCN(c4ccc(Cl)c(Cl)c4)CC3)c(C)c2c1=O [Compound 6, 2-(6-(4-(3,4-dichlorophenyl)piperazine-1-carbonyl)-5-methyl-4-oxothieno[2,3-d]pyrimidin-3(4H)-yl)-N,N-diethylacetamide] | 9.67 µM | 0.34 µM | 0.95 µM |
| CCN(CC)C(=O)Cn1cnc2sc(C(=O)N3CCN(c4ccc(C(F)(F)F)cc4)CC3)c(C)c2c1=O [Compound 10, N,N-diethyl-2-(5-methyl-4-oxo-6-(4-(4-(trifluoromethyl)phenyl)piperazine-1-carbonyl)thieno[2,3-d]pyrimidin-3(4H)-yl)acetamide] | > 31.3 µM | 0.3 µM | 1.22 µM |
| Cc1c(C(=O)N2CCN(c3ccccc3)CC2)sc2ncn(CC(=O)NC3CCCCC3)c(=O)c12 [Compound 19, N-cyclohexyl-2-(5-methyl-4-oxo-6-(4-phenylpiperazine-1-carbonyl)thieno[2,3-d]pyrimidin-3(4H)-yl)acetamide] | 2.38 µM | 0.36 µM | 3.6 µM |
| Cc1c(C(=O)N2CCN(c3ccc(Cl)cc3)CC2)sc2ncn(CC(=O)NC3CCCCC3)c(=O)c12 [Compound 20, 2-(6-(4-(4-chlorophenyl)piperazine-1-carbonyl)-5-methyl-4-oxothieno[2,3-d]pyrimidin-3(4H)-yl)-N-cyclohexylacetamide] | 2.1 µM | 0.18 µM | 0.33 µM |
| Cc1c(C(=O)N2CCN(c3cccc(F)c3)CC2)sc2ncn(CC(=O)NC3CCCCC3)c(=O)c12 [Compound 21, N-cyclohexyl-2-(6-(4-(3-fluorophenyl)piperazine-1-carbonyl)-5-methyl-4-oxothieno[2,3-d]pyrimidin-3(4H)-yl)acetamide] | 5.2 µM | 0.19 µM | 0.61 µM |
| Cc1c(C(=O)N2CCN(c3ccccc3F)CC2)sc2ncn(CC(=O)NC3CCCCC3)c(=O)c12 [Compound 23, N-cyclohexyl-2-(6-(4-(2-fluorophenyl)piperazine-1-carbonyl)-5-methyl-4-oxothieno[2,3-d]pyrimidin-3(4H)-yl)acetamide] | 3.27 µM | 0.28 µM | 1.26 µM |
| Cc1c(C(=O)N2CCN(c3cccc(Cl)c3)CC2)sc2ncn(CC(=O)NC3CCCCC3)c(=O)c12 [Compound 24, 2-(6-(4-(3-chlorophenyl)piperazine-1-carbonyl)-5-methyl-4-oxothieno[2,3-d]pyrimidin-3(4H)-yl)-N-cyclohexylacetamide] | 1.52 µM | 0.09 µM | 0.3 µM |
| Cc1c(C(=O)N2CCN(c3ccccc3)CC2)sc2ncn(C(C)C(=O)NC3CCCCC3)c(=O)c12 (centres unmarked) [Compound 33, N-cyclohexyl-2-(5-methyl-4-oxo-6-(4-phenylpiperazine-1-carbonyl)thieno[2,3-d]pyrimidin-3(4H)-yl)propanamide] | 5.13 µM | 0.35 µM | 16.5 µM |
| Cc1c(C(=O)N2CCN(c3cccc(Cl)c3)CC2)sc2ncn(CC(=O)NC3CCCC3)c(=O)c12 [Compound 37, 2-(6-(4-(3-chlorophenyl)piperazine-1-carbonyl)-5-methyl-4-oxothieno[2,3-d]pyrimidin-3(4H)-yl)-N-cyclopentylacetamide] | 3.29 µM | 0.17 µM | 0.3 µM |
| Cc1c(C(=O)N2CCN(c3ccc(Cl)c(C(F)(F)F)c3)CC2)sc2ncn(CC(=O)NC3CCCC3)c(=O)c12 [Compound 38, 2-(6-(4-(4-chloro-3-(trifluoromethyl)phenyl)piperazine-1-carbonyl)-5-methyl-4-oxothieno[2,3-d]pyrimidin-3(4H)-yl)-N-cyclopentylacetamide] | 2.14 µM | 0.1 µM | 0.1 µM |
| Cc1c(C(=O)N2CCN(c3ccc(Cl)cc3)CC2)sc2ncn(CC(=O)NC3CCCC3)c(=O)c12 [Compound 42, 2-(6-(4-(4-chlorophenyl)piperazine-1-carbonyl)-5-methyl-4-oxothieno[2,3-d]pyrimidin-3(4H)-yl)-N-cyclopentylacetamide] | 3.84 µM | 0.28 µM | 0.57 µM |
| Cc1c(C(=O)N2CCN(c3ccccc3)CC2)sc2ncn(CC(=O)Nc3ccccc3)c(=O)c12 [Compound 52, 2-(5-methyl-4-oxo-6-(4-phenylpiperazine-1-carbonyl)thieno[2,3-d]pyrimidin-3(4H)-yl)-N-phenylacetamide] | 8.79 µM | 0.35 µM | 1.01 µM |
| Cc1c(C(=O)N2CCN(c3cc(C(F)(F)F)cc(C(F)(F)F)c3)CC2)sc2ncn(CC(=O)Nc3ccccc3)c(=O)c12 [Compound 53, 2-(6-(4-(3,5-bis(trifluoromethyl)phenyl)piperazine-1-carbonyl)-5-methyl-4-oxothieno[2,3-d]pyrimidin-3(4H)-yl)-N-phenylacetamide] | 0.58 µM | 1.04 µM | 0.19 µM |
| Cc1c(C(=O)N2CCN(c3ccccc3)CC2)sc2ncn(CC(=O)Nc3cc(F)cc(F)c3)c(=O)c12 [Compound 55, 2-(6-(4-phenylpiperazine-1-carbonyl)-5-methyl-4-oxothieno[2,3-d]pyrimidin-3(4H)-yl)-N-(3,5-difluorophenyl)acetamide] | > 0.95 µM | 0.38 µM | 0.24 µM |
| Cc1c(C(=O)N2CCN(c3ccccc3F)CC2)sc2ncn(CC(=O)Nc3cccc(C(F)(F)F)c3)c(=O)c12 [Compound 62, 2-(6-(4-(2-fluorophenyl)piperazine-1-carbonyl)-5-methyl-4-oxothieno[2,3-d]pyrimidin-3(4H)-yl)-N-(3-(trifluoromethyl)phenyl)acetamide] | 0.34 µM | 0.8 µM | 0.29 µM |
| CCN(CC(F)(F)F)C(=O)Cn1cnc2sc(C(=O)N3CCN(c4ccc(C(F)(F)F)cc4)CC3)c(C)c2c1=O [Compound 130, N-ethyl-2-(5-methyl-4-oxo-6-(4-(4-(trifluromethyl)phenyl)piperazine-1-carbonyl)thieno[2,3-d]pyrimidin-3(4H)-yl)-N-(2,2,2-trifluoroethyl)acetamide] |  | 0.39 µM | 3.47 µM |
| Cc1c(C(=O)N2CCN(c3ccc(F)c(Cl)c3)CC2)sc2ncn(CC(=O)N3CCCC3)c(=O)c12 [Compound 134, 6-(4-(3-chloro-4-fluoro-phenyl)piperazine-1-carbonyl)-5-methyl-3-(2-oxo-2-(pyrrolidin-1-yl)ethyl)thieno[2,3-d]pyri-midin-4(3H)-one] |  | 18.2 µM | 0.51 µM |
| Cc1c(C(=O)N2CCN(c3ccc(F)c(Cl)c3)CC2)sc2ncn(CC(=O)N3CC[C@H](F)C3)c(=O)c12 [Compound 137, (S)-6-(4-(3-chloro-4-fluoro-phenyl)piperazine-1-carbonyl)-3-(2-(3-fluoro-pyrrolidin-1-yl)-2-oxoethyl)-5-methyl-thieno[2,3-d]pyrimidin-4(3H)-one] |  | > 8.44 µM | 1.8 µM |
| Cc1c(C(=O)N2CCN(c3ccccc3F)CC2)sc2ncn(CC(=O)Nc3ccc(C(F)(F)F)cc3)c(=O)c12 [Compound 142, 2-(6-(4-(2-fluorophenyl)piperazine-1-carbonyl)-5-methyl-4-oxothieno[2,3-d]pyrimidin-3(4H)-yl)-N-(4-(trifluoromethyl)phenyl)acetamide] |  | 0.7 µM | 1.16 µM |
